From ChEMBL document CHEMBL1201862, “PubChem BioAssay data set” (2004)
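Grown in 96-well plates, cells were treated for 48 hours with each compound at five concentrations. Insufficient inhibition: endpoint recorded as highest concentration tested. GI50: concentration for 50% inhibition of growth.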 Active and inactive are the calls of the source. Rule as the data show it: active = GI50 up to about 1.1 µM and inactive = higher.

Tests used:
Assay in all cases: NCI-60 cell line screen, 48 h
[1] = test system: 786-0
[2] = test system: ACHN
[3] = test system: DU-145
[4] = test system: HCT-116
[5] = test system: HCT-15
[6] = test system: HOP-92
[7] = test system: LOX IMVI
[8] = test system: MCF7
[9] = test system: MDA-MB-231
[10] = test system: MDA-N
[11] = test system: NCI-H522
[12] = test system: OVCAR-4
[13] = test system: SF-539
[14] = test system: SK-MEL-28
[15] = test system: SK-MEL-5
[16] = test system: SNB-75
[17] = test system: SR
[18] = test system: TK-10
[19] = test system: UACC-257
[20] = test system: UO-31

Structure (SMILES)	GI50 [1]	GI50 [2]	GI50 [3]	GI50 [4]	GI50 [5] [µM]	GI50 [6]	GI50 [7]	GI50 [8]	GI50 [9]	GI50 [10]	GI50 [11]	GI50 [12]	GI50 [13]	GI50 [14]	GI50 [15]	GI50 [16]	GI50 [17]	GI50 [18]	GI50 [19]	GI50 [20]
CN(C)CCn1c(=O)nc2c3c(c([N+](=O)[O-])ccc31)Nc1ccc(O)cc1-2	1.67 µM (inactive)	3.44 µM (inactive)	4.36 µM (inactive)	1.57 µM (inactive)	16.7	2.69 µM (inactive)	1.27 µM (inactive)	1.32 µM (inactive)	2.07 µM (inactive)	6.7 µM (inactive)	1.43 µM (inactive)	9.68 µM (inactive)	1.7 µM (inactive)	14.8 µM (inactive)	4.45 µM (inactive)	6.28 µM (inactive)	1.12 µM (inactive)	4.66 µM (inactive)	8.28 µM (inactive)	3.44 µM (inactive)
O=C(O)CCC(=O)C(=O)O [ALPHA-KETOGLUTARIC ACID]	> 100 µM (inactive)	> 100 µM (inactive)	> 100 µM (inactive)	> 100 µM (inactive)	> 100	> 100 µM (inactive)	> 100 µM (inactive)	> 100 µM (inactive)	> 100 µM (inactive)	> 100 µM (inactive)	> 100 µM (inactive)	> 100 µM (inactive)	> 100 µM (inactive)	> 100 µM (inactive)	> 100 µM (inactive)	> 100 µM (inactive)	> 100 µM (inactive)	> 100 µM (inactive)	> 100 µM (inactive)	> 100 µM (inactive)
COc1cc(O)c2c(=O)cc(-c3ccc(O)cc3O)oc2c1CC=C(C)C [ARTOCARPETIN A]	26.6 µM (inactive)	16.3 µM (inactive)	30.2 µM (inactive)	18.1 µM (inactive)	11.6	19.6 µM (inactive)	11.9 µM (inactive)	20.3 µM (inactive)	22.1 µM (inactive)	19.3 µM (inactive)	16 µM (inactive)	13.1 µM (inactive)	18.1 µM (inactive)	29.1 µM (inactive)	18.3 µM (inactive)	20.7 µM (inactive)	4.5 µM (inactive)	27.7 µM (inactive)	28.4 µM (inactive)	17.9 µM (inactive)
CC[C@]12CCCN3CCc4c(n(c5ccccc45)C(=O)C1)[C@@H]32 [VINBURNINE]	10.1 µM (inactive)	32.4 µM (inactive)	19.2 µM (inactive)	3.86 µM (inactive)	4.15	> 80.9 µM (inactive)	10 µM (inactive)	3.51 µM (inactive)	9.35 µM (inactive)	1.53 µM (inactive)	2.32 µM (inactive)	18.2 µM (inactive)	7.91 µM (inactive)	> 36.5 µM (inactive)	5.05 µM (inactive)	13.3 µM (inactive)	1.31 µM (inactive)	12.5 µM (inactive)	15.2 µM (inactive)	4.75 µM (inactive)
